According to patent publication US20240360175A1, “PEPTIDE DERIVATIVES AND RELATED USES AS OREXIN AGONISTS” (Centessa Pharmaceuticals (UK) Limited, priority 2021, published 2024):
Numbered stars: 1 amine (or outer) side, 2 acyl side, 3 side chain; on linkers, the order of the positions; unused ones are H or OH. Square brackets hold non-standard residues; d marks the D form. Peptide text beside a SMILES is read from it. * marks the point of attachment. X8 = CCCCCC[C@H](NC(=O)[C@@H](NC[C@H](CC(C)C)N*)[C@@H](C)O)C(N)=O; X7 = O=C([C@@H](N[*:1])c1cccc2ccccc12)[*:2]; hArg(Et2) = CCN=C(NCC)NCCCC[C@H](N)C(=O)O; PEG8 = NCCOCCOCCOCCOCCOCCOCCOCCOCCC(=O)O; X1 = O=C(CN(CCc1ccc2ccccc2c1)[*:1])[*:2]; Phg(4-OMe) = COc1ccc([C@H](N)C(=O)O)cc1; X4 = CN(C)CCOCCOCCOCCOCCOCCOCCC(=O)*; Gly(NCH2CH2Ph) = O=C(O)CNCCc1ccccc1; PEG6 = NCCOCCOCCOCCOCCOCCOCCC(=O)O; Hyp = O=C(O)[C@@H]1C[C@@H](O)CN1; Hpg = N[C@H](C(=O)O)c1ccc(O)cc1; NMeN = CN[C@@H](CC(N)=O)C(=O)O; Aoc(2) = CCCCCC[C@H](N)C(=O)O; PEG4 = NCCOCCOCCOCCOCCC(=O)O; Phg = N[C@H](C(=O)O)c1ccccc1; Cbz = O=C(OCc1ccccc1)*

Experiments:
[1] = target: T1, human orexin type 1 receptor (hOX1R) (Homo sapiens, UniProt O43613); test: Measurement of orexin type 1 receptor agonist activity (FLIPR TETRA intracellular Ca2+ fluorescence); format: cell-based; conditions: CHO cells expressing hOX1R; agonist activity, Ca2+ fluorescence; read-out: hOX1 pEC50 (converted)
T1 construct: expressed in transfected cells
T1 sequence (O43613 1-425): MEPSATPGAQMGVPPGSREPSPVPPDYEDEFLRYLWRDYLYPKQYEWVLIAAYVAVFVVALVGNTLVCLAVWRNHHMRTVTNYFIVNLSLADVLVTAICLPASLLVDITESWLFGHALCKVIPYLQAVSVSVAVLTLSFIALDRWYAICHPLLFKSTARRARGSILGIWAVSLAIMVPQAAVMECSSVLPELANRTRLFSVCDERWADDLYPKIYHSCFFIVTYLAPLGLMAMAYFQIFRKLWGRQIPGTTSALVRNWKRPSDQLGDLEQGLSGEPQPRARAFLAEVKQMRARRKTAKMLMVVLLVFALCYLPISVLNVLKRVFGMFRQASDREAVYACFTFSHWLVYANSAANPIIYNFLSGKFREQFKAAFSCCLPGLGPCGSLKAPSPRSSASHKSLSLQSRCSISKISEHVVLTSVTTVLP
Description: (§1) Stable cell line generation. Obtainment of cells stably expressing either human orexin type 2 or human orexin type 1 receptor: to obtain a stable cell line the Orexin receptor cDNA was inserted into pcDNA3.1(+) plasmid vector and clones identified by G418 drug resistance selection. […] A single clone for OX2R—CHO and OX1R—CHO were grown in bulk and frozen to generate a cell bank for routine screening.
(§2) Measurement of orexin type 1 receptor agonist activity. Chinese hamster ovary (CHO) cells expressing human orexin type 1 receptor (hOX1R) were seeded in each well of 384 well black clear bottom plates (BD Flacon) at 10,000 cells per well and cultured for 24 h in an Ham's F12 (Gibco) medium containing 10% fetal calf serum (Sigma Aldrich) under the conditions of 37° C., 5% CO2. After removal of the medium, 50 μL of assay buffer 1 (0.1% bovine serum albumin (Sigma Aldrich), 20 mM HEPES (Molecular Dimensions), […] probenecid (Sigma Aldrich), 1× Calcium 5 dye (Molecular Devices) in Hank's balanced salt solution (Invitrogen)) was added, and the cells were incubated for 60 min under the conditions of 37° C., 5% CO2. A test peptide was dissolved in dimethyl sulfoxide (Sigma Aldrich) to 1 mM, and then diluted with assay buffer 2 (20 mM HEPES, Hank's balanced salt solution, 0.1% bovine serum albumin). For the reaction, a test peptide solution (10 μl) was added using Fluorescent Imaging Plate Reader TETRA (FLIPR TETRA: manufactured by Molecular Devices), a fluorescence value (excitation wavelength 488 nm, measurement wavelength 570 nm) of each well was measured every one second for 2 min, and the agonist activity was determined using the area of the fluorescence value as an indicator of intracellular Ca^2+ concentration. The agonist activity of the test peptide was calculated assuming that the fluorescence value of the well added with only the dilution buffer was 0% and the fluorescence value of the well added with 10 nM human orexin A (Tocris) buffer was 100%. As used herein, Emax indicates the value at 1 μM concentration when orexin A is converted to a full agonist (maximum value of agonist activity: 100%).

[2] = target: T2, human orexin type 2 receptor (hOX2R) (Homo sapiens, UniProt O43614); test: Measurement of orexin type 2 receptor agonist activity (FLIPR TETRA intracellular Ca2+ fluorescence); format: cell-based; conditions: CHO cells expressing hOX2R; agonist activity, Ca2+ fluorescence; read-out: hOX2 pEC50 (converted)
T2 construct: expressed in transfected cells
T2 sequence (O43614 1-444): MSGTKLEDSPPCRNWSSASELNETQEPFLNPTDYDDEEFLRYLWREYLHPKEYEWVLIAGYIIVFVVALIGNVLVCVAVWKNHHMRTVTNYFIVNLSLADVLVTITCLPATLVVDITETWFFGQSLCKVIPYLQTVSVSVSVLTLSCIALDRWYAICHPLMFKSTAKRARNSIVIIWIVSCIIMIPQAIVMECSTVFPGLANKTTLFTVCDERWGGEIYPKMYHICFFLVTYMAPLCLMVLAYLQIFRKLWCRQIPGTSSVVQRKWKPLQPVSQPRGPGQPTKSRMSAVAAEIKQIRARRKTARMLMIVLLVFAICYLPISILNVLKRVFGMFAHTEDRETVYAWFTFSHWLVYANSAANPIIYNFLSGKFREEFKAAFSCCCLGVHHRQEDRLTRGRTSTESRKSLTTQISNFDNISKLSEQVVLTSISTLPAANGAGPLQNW
Description: as §1
as §2, with “type 2” for “type 1”, “receptor (hOX2R)” for “receptor (hOX1R) were”

EC50 [1] [nM]	EC50 [2] [nM]	SMILES
> 10	< 0.1	CCCCCC[C@H](NC(=O)[C@@H](NC[C@H](CC(C)C)NC(=O)[C@@H](NC(=O)CNC(=O)[C@@H](NC(=O)[C@H](C)NC(=O)[C@@H]1C[C@@H](O)CN1C(=O)[C@H](CC(N)=O)NC(=O)CN(CCc1ccccc1)C(=O)CCOCCOCCOCCOCCOCCOCCN)c1ccccc1)[C@@H](C)CC)[C@@H](C)O)C(N)=O [Peptide 1] (H-[PEG6][Gly(NCH2CH2Ph)]N[Hyp]A[Phg]GI-X8)
1 to 10	< 0.1	CCCCCC[C@H](NC(=O)[C@@H](NC(=O)[C@H](CC(C)C)NC(=O)[C@@H](NC(=O)CNC(=O)[C@@H](NC(=O)[C@H](C)NC(=O)[C@@H]1C[C@@H](O)CN1C(=O)[C@H](CC(N)=O)NC(=O)CN(CCc1ccccc1)C(=O)[C@H](CCCNC(=N)N)NC(=O)CCOCCOCCOCCOCCOCCOCCN(C)C)c1ccccc1)[C@@H](C)CC)[C@@H](C)O)C(N)=O [Peptide 2] (X4-R[Gly(NCH2CH2Ph)]N[Hyp]A[Phg]GILT[Aoc(2)]-NH2)
> 10	< 0.1	CCCCCC[C@H](NC(=O)[C@@H](NC(=O)[C@H](CC(C)C)NC(=O)[C@@H](NC(=O)CNC(=O)[C@@H](NC(=O)[C@H](C)NC(=O)[C@@H]1C[C@@H](O)CN1C(=O)[C@H](CC(N)=O)NC(=O)CN(CCc1ccccc1)C(=O)[C@H](CCCNC(=N)N)NC(=O)CCOCCOCCOCCOCCOCCOCCN)c1ccccc1)[C@@H](C)CC)[C@@H](C)O)C(N)=O [Peptide 3] (H-[PEG6]R[Gly(NCH2CH2Ph)]N[Hyp]A[Phg]GILT[Aoc(2)]-NH2)
> 10	< 0.1	CCCCCC[C@H](NC(=O)[C@@H](NC(=O)[C@H](CC(C)C)NC(=O)[C@@H](NC(=O)CNC(=O)[C@@H](NC(=O)[C@H](C)NC(=O)[C@@H]1C[C@@H](O)CN1C(=O)[C@H](CC(N)=O)NC(=O)CN(CCc1ccccc1)C(=O)[C@@H](N)CCCCN/C(=N/CC)NCC)c1ccccc1)[C@@H](C)CC)[C@@H](C)O)C(N)=O [Peptide 4] (H-[hArg(Et2)][Gly(NCH2CH2Ph)]N[Hyp]A[Phg]GILT[Aoc(2)]-NH2)
> 10	< 0.1	CCCCCC[C@H](NC(=O)[C@@H](NC(=O)[C@H](CC(C)C)NC(=O)[C@@H](NC(=O)CNC(=O)[C@@H](NC(=O)[C@H](C)NC(=O)[C@@H]1C[C@@H](O)CN1C(=O)[C@H](CC(N)=O)NC(=O)CN(CCc1ccccc1)C(=O)[C@H](CCCNC(=N)N)NC(=O)CCOCCOCCOCCOCCN)c1ccccc1)[C@@H](C)CC)[C@@H](C)O)C(N)=O [Peptide 5] (H-[PEG4]R[Gly(NCH2CH2Ph)]N[Hyp]A[Phg]GILT[Aoc(2)]-NH2)
> 10	< 0.1	CCCCCC[C@H](NC(=O)[C@@H](NC(=O)[C@H](CC(C)C)NC(=O)[C@@H](NC(=O)CNC(=O)[C@@H](NC(=O)[C@H](C)NC(=O)[C@@H]1C[C@@H](O)CN1C(=O)[C@H](CC(N)=O)N(C)C(=O)CN(CCc1ccccc1)C(=O)[C@H](CCCNC(=N)N)NC(=O)CCOCCOCCOCCOCCOCCOCCN)c1ccccc1)[C@@H](C)CC)[C@@H](C)O)C(N)=O [Peptide 6] (H-[PEG6]R[Gly(NCH2CH2Ph)][NMeN][Hyp]A[Phg]GILT[Aoc(2)]-NH2)
> 10	< 0.1	CCCCCC[C@H](NC(=O)[C@@H](NC(=O)[C@H](CC(C)C)NC(=O)[C@@H](NC(=O)CNC(=O)[C@@H](NC(=O)[C@H](C)NC(=O)[C@@H]1C[C@@H](O)CN1C(=O)[C@H](CC(N)=O)NC(=O)CN(CCc1ccccc1)C(=O)[C@@H](N)CCCCN/C(=N/CC)NCC)c1ccc(O)cc1)[C@@H](C)CC)[C@@H](C)O)C(N)=O [Peptide 7] (H-[hArg(Et2)][Gly(NCH2CH2Ph)]N[Hyp]A[Hpg]GILT[Aoc(2)]-NH2)
> 10	< 0.1	CCCCCC[C@H](NC(=O)[C@@H](NC(=O)[C@H](CC(C)C)NC(=O)[C@@H](NC(=O)CNC(=O)[C@@H](NC(=O)[C@H](C)NC(=O)[C@@H]1C[C@@H](O)CN1C(=O)[C@H](CC(N)=O)NC(=O)CN(CCc1ccccc1)C(=O)[C@H](CCCNC(=N)N)NC(=O)CCOCCOCCOCCOCCOCCOCCOCCOCCN)c1ccccc1)[C@@H](C)CC)[C@@H](C)O)C(N)=O [Peptide 8] (H-[PEG8]R[Gly(NCH2CH2Ph)]N[Hyp]A[Phg]GILT[Aoc(2)]-NH2)
> 10	< 0.1	CCCCCC[C@H](NC(=O)[C@@H](NC(=O)[C@H](CC(C)C)NC(=O)[C@@H](NC(=O)CNC(=O)[C@@H](NC(=O)[C@H](C)NC(=O)[C@@H]1C[C@@H](O)CN1C(=O)[C@H](CC(N)=O)NC(=O)CN(CCc1ccccc1)C(=O)[C@@H](N)CCCCNC(=NCC)NCC)c1cccc2ccccc12)[C@@H](C)CC)[C@@H](C)O)C(N)=O [Peptide 9] (H-[hArg(Et2)][Gly(NCH2CH2Ph)]N[Hyp]A[X7]GILT[Aoc(2)]-NH2; N-terminus assumed)
> 10	< 0.1	CCCCCC[C@H](NC(=O)[C@@H](NC(=O)[C@H](CC(C)C)NC(=O)[C@@H](NC(=O)CNC(=O)[C@@H](NC(=O)[C@H](C)NC(=O)[C@@H]1C[C@@H](O)CN1C(=O)[C@H](CC(N)=O)NC(=O)CN(CCc1ccccc1)C(=O)[C@H](CCCCNC(=NCC)NCC)NC(=O)OCc1ccccc1)c1ccccc1)[C@@H](C)CC)[C@@H](C)O)C(N)=O [Peptide 10] (Cbz-[hArg(Et2)][Gly(NCH2CH2Ph)]N[Hyp]A[Phg]GILT[Aoc(2)]-NH2)
1 to 10	< 0.1	CCCCCC[C@H](NC(=O)[C@@H](NC(=O)[C@H](CC(C)C)NC(=O)[C@@H](NC(=O)CNC(=O)[C@@H](NC(=O)[C@H](C)NC(=O)[C@H](Cc1c[nH]cn1)NC(=O)[C@H](CC(N)=O)NC(=O)CN(CCc1ccc2ccccc2c1)C(=O)[C@@H](N)CCCCNC(=NCC)NCC)c1ccccc1)[C@@H](C)CC)[C@@H](C)O)C(N)=O [Peptide 11] (H-[hArg(Et2)][X1]NHA[Phg]GILT[Aoc(2)]-NH2; N-terminus assumed)
> 10	< 0.1	CCCCCC[C@H](NC(=O)[C@@H](NC(=O)[C@H](CC(C)C)NC(=O)[C@@H](NC(=O)CNC(=O)[C@@H](NC(=O)[C@H](C)NC(=O)[C@H](Cc1c[nH]cn1)NC(=O)[C@H](CC(N)=O)NC(=O)CN(CCc1ccccc1)C(=O)[C@@H](N)CCCCN/C(=N/CC)NCC)c1ccc(OC)cc1)[C@@H](C)CC)[C@@H](C)O)C(N)=O [Peptide 12] (H-[hArg(Et2)][Gly(NCH2CH2Ph)]NHA[Phg(4-OMe)]GILT[Aoc(2)]-NH2)
